PubChem BioAssay AID1259411 (Chemical Carcinogenesis Research Information System (CCRIS), 2018)
Activity calls are given as the source filed them. How the calls were made is not given here.

System: rodent carcinogenicity bioassays, tumor incidence
Test: CCRIS carcinogenicity studies
Procedure, shortened: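 Archive of carcinogenicity, mutagenicity, tumor promotion and tumor inhibition results drawn from journals, NCI reports and other sources, expert-reviewed; covers 1985-2011 and is no longer updated.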

In the case of `O=c1[nH]cc(F)c(=O)[nH]1`, the carcinogen call (Species: MOUSE, Strain/Sex: B6C3F1/FEMALE, Route: ORAL, Dose: 0, 30, 60 PPM IN DRINKING WATER FOR 82 WK (STUDY DURATION: 86 WK), Dose: 0, 30, 60 PPM IN DRINKING WATER FOR 82 WK (STUDY DURATION: 86 WK)) was “inactive; negative”, the carcinogen call (Species: MOUSE, Strain/Sex: B6C3F1/MALE, Route: ORAL, Dose: 0, 30, 60 PPM IN DRINKING WATER FOR 82 WK (STUDY DURATION: 86 WK), Dose: 0, 30, 60 PPM IN DRINKING WATER FOR 82 WK (STUDY DURATION: 86 WK)) was “inactive; negative” and the carcinogen call (Species: MOUSE, Strain/Sex: BALB/FEMALE, Route: INTRAPERITONEAL, Dose: 0, 30 MG/KG IN STERILE SALINE 1/WK FOR 50 WK (STUDY DURATION: 105 WK), Tumor Site: Type of Lesion: LUNG: TUMOR, LYMPHORETICULAR SYSTEM: LYMPHOMA OR LEUKEMIA) was “active; positive”. The carcinogen call (Species: MOUSE, Strain/Sex: BALB/MALE, Route: INTRAPERITONEAL, Dose: 0, 30 MG/KG IN STERILE SALINE 1/WK FOR 50 WK (STUDY DURATION: 105 WK), Tumor Site: Type of Lesion: LUNG: TUMOR) was “active; positive”, the carcinogen call (Species: RAT, Strain/Sex: F344/FEMALE, Route: ORAL, Dose: 0, 62, 125 PPM IN DRINKING WATER FOR 111 WK (STUDY DURATION: 111 WK), Dose: 0, 62, 125 PPM IN DRINKING WATER FOR 111 WK (STUDY DURATION: 111 WK)) was “inactive; negative” and the carcinogen call (Species: RAT, Strain/Sex: F344/MALE, Route: ORAL, Dose: 0, 62, 125 PPM IN DRINKING WATER FOR 111 WK (STUDY DURATION: 111 WK), Dose: 0, 62, 125 PPM IN DRINKING WATER FOR 111 WK (STUDY DURATION: 111 WK)) was “inactive; negative”.
In the case of `c1ccc2c(c1)ccc1c2ccc2c3ccccc3ccc21`, the carcinogen call (Species: MOUSE, Strain/Sex: NMRI/FEMALE, Route: DERMAL, Dose: 0, 136, 448, 1358 NMOL (TOTAL DOSE) APPLIED AS 1 DROP OF ACETONE SOLUTION 3/WK FOR DURATION OF STUDY (STUDY DURATION: 11, Dose: 0, 136, 448, 1358 NMOL (TOTAL DOSE) APPLIED AS 1 DROP OF ACETONE SOLUTION 3/WK FOR DURATION OF STUDY (STUDY DURATION: 11, Tumor Site: Type of Lesion: SKIN: PAPILLOMA) was “active; positive”, the carcinogen call (Species: MOUSE, Strain/Sex: NMRI/FEMALE, Route: SUBCUTANEOUS, Dose: 0, 36, 40, 108, 308, 399 NMOL IN TRICAPRYLIN ONCE (STUDY DURATION: 112 WK), Dose: 0, 36, 40, 108, 308, 399 NMOL IN TRICAPRYLIN ONCE (STUDY DURATION: 112 WK), Tumor Site: Type of Lesion: INJECTION SITE: FIBROSARCOMA) was “active; positive” and the carcinogen call (Species: MOUSE, Strain/Sex: NMRI/FEMALE, Route: SUBCUTANEOUS, Dose: 0, 40, 400 NMOL IN 0.05 ML OF AN AQUEOUS SOLUTION CONTAINING 1% (W/W) GELATIN 0.9% (W/W) SODIUM CHLORIDE AND 0.4% (W/W), Dose: 0, 40, 400 NMOL IN 0.05 ML OF AN AQUEOUS SOLUTION CONTAINING 1% (W/W) GELATIN 0.9% (W/W) SODIUM CHLORIDE AND 0.4% (W/W), Tumor Site: Type of Lesion: LUNG: ADENOMA) was “active; positive”.
For `Nc1ccc(NCCO)c([N+](=O)[O-])c1`, the carcinogen call (Species: MOUSE, Strain/Sex: B6C3F1/MALE, Route: GAVAGE, Dose: 0, 125, 250 MG/KG IN CORN OIL 5 D/WK FOR 104 WK (STUDY DURATION: 105 WK), Dose: 0, 125, 250 MG/KG IN CORN OIL 5 D/WK FOR 104 WK (STUDY DURATION: 105 WK), Tumor Site: Type of Lesion: LIVER: HEPATOCELLULAR ADENOMA OR CARCINOMA) was “equivocal”, the carcinogen call (Species: RAT, Strain/Sex: F344/FEMALE, Route: GAVAGE, Dose: 0, 250, 500 MG/KG IN CORN OIL 5 D/WK FOR 105 WK (STUDY DURATION: 105 WK), Dose: 0, 250, 500 MG/KG IN CORN OIL 5 D/WK FOR 105 WK (STUDY DURATION: 105 WK)) was “inactive; negative” and the carcinogen call (Species: RAT, Strain/Sex: F344/MALE, Route: GAVAGE, Dose: 0, 250, 500 MG/KG IN CORN OIL 5 D/WK FOR 105 WK (STUDY DURATION: 105 WK), Dose: 0, 250, 500 MG/KG IN CORN OIL 5 D/WK FOR 105 WK (STUDY DURATION: 105 WK)) was “inactive; negative”.
In the case of `Nc1ccc(-c2ccc(N)cc2)cc1`, the carcinogen call (Species: DOG, Route: ORAL, Tumor Site: Type of Lesion: URINARY BLADDER) was “active; positive”, the carcinogen call (Species: HAMSTER, Route: ORAL, Tumor Site: Type of Lesion: LIVER) was “active; positive” and the carcinogen call (Species: HUMAN, Route: ORAL, INHALATION, DERMAL, Tumor Site: Type of Lesion: URINARY BLADDER) was “active; positive”. For the same molecule, the carcinogen call (Species: MOUSE, Route: SUBCUTANEOUS, Tumor Site: Type of Lesion: LIVER) was “active; positive”, the carcinogen call (Species: RAT, Route: ORAL, Tumor Site: Type of Lesion: LIVER) was “active; positive” and the carcinogen call (Species: RAT, Route: SUBCUTANEOUS, Tumor Site: Type of Lesion: LIVER, EAR (ZYMBAL GLAND), INJECTION SITE, Tumor Site: Type of Lesion: LIVER, EAR (ZYMBAL GLAND), INJECTION SITE) was “active; positive”. For the same molecule, the carcinogen call (Species: RAT, Strain/Sex: STRAIN-CD/FEMALE, Route: INTRAPERITONEAL, Dose: 0, 10, 30 UMOL/KG IN TRIOCTANOIN 2/WK FOR 4 WK (TOTAL DOSES: 13.5, 40.1 UMOL) (STUDY DURATION: 46 WK), Dose: 0, 10, 30 UMOL/KG IN TRIOCTANOIN 2/WK FOR 4 WK (TOTAL DOSES: 13.5, 40.1 UMOL) (STUDY DURATION: 46 WK), Tumor Site: Type of Lesion: MAMMARY GLAND: FIBROADENOMA, ADENOCARCINOMA, EAR (ZYMBAL GLAND): ADENOMA OR CARCINOMA) was “active; positive”.
With `Nc1nc(N)c2nc(-c3ccccc3)c(N)nc2n1` the carcinogen call (Species: MOUSE, Strain/Sex: B6C3F1/FEMALE, Route: ORAL, Dose: 0, 100, 200, 400 PPM IN FEED FOR 104 WK (STUDY DURATION: 2 YR), Dose: 0, 100, 200, 400 PPM IN FEED FOR 104 WK (STUDY DURATION: 2 YR), Tumor Site: Type of Lesion: LIVER: HEPATOCELLULAR ADENOMA) was “active; positive”, the carcinogen call (Species: MOUSE, Strain/Sex: B6C3F1/FEMALE, Route: ORAL, Dose: 0, 400 PPM IN FEED FOR 104 WK (STUDY DURATION: 2 YR), Tumor Site: Type of Lesion: LIVER: HEPATOCELLULAR ADENOMA) was “active; positive” and the carcinogen call (Species: MOUSE, Strain/Sex: B6C3F1/MALE, Route: ORAL, Dose: 0, 100, 200, 400 PPM IN FEED FOR 104 WK (STUDY DURATION: 2 YR), Dose: 0, 100, 200, 400 PPM IN FEED FOR 104 WK (STUDY DURATION: 2 YR), Tumor Site: Type of Lesion: LIVER: HEPATOCELLULAR CARCINOMA) was “active; positive”. The carcinogen call (Species: MOUSE, Strain/Sex: B6C3F1/MALE, Route: ORAL, Dose: 0, 400 PPM IN FEED FOR 104 WK (STUDY DURATION: 2 YR), Tumor Site: Type of Lesion: LIVER: HEPATOCELLULAR ADENOMA) was “active; positive”, the carcinogen call (Species: RAT, Strain/Sex: F344/FEMALE, Route: ORAL, Dose: 0, 150, 300, 600 PPM IN FEED FOR 104 WK (STUDY DURATION: 2 YR), Dose: 0, 150, 300, 600 PPM IN FEED FOR 104 WK (STUDY DURATION: 2 YR)) was “inactive; negative” and the carcinogen call (Species: RAT, Strain/Sex: F344/MALE, Route: ORAL, Dose: 0, 150, 300, 600 PPM IN FEED FOR 104 WK (STUDY DURATION: 105 WK), Dose: 0, 150, 300, 600 PPM IN FEED FOR 104 WK (STUDY DURATION: 105 WK), Tumor Site: Type of Lesion: LIVER: ADENOMA) was “equivocal”.
For `Oc1ccc(O)c(-c2ccccc2)c1`, the carcinogen call (Species: MOUSE, Strain/Sex: CD-1/FEMALE, Route: DERMAL, Dose: 0, 10 MG IN DMSO 5 D/WK FOR 40 WK (STUDY DURATION: 40 WK)) was “inactive; negative” and the carcinogen call (Species: RAT, Strain/Sex: F344/FEMALE, Route: INTRAVESICULAR, Dose: 0, 1% IN 0.2 ML SALINE 2/WK FOR 5 WK (STUDY DURATION: 36 WK)) was “inactive; negative”.
For `Clc1cc(Cl)c(-c2cc(Cl)c(Cl)cc2Cl)cc1Cl`, the carcinogen call (Species: RAT, Strain/Sex: SPRAGUE-DAWLEY/FEMALE, Route: ORAL, Dose: 0, 10, 100, 300, 1000, 3000 NG/KG/D (STUDY DURATION: 2 YRS), Dose: 0, 10, 100, 300, 1000, 3000 NG/KG/D (STUDY DURATION: 2 YRS)) was “inactive; negative”, the carcinogen call (Species: Rat, Strain/Sex: Harlan Sprague-Dawley/Female, Route: Gavage, Dose: 0, 3000 ug/kg in corn oil:acetone (99:1) 5 d/wk for 30 wk then vehicle for remainder of 2 yr study, Tumor Site: Type of Lesion: Liver: Cholangioma (0/53, 2/50)) was “equivocal” and the carcinogen call (Species: Rat, Strain/Sex: Harlan Sprague-Dawley/Female, Route: Gavage, Dose: 0, 10, 100, 300, 1000, 3000 ug/kg in corn oil:acetone (99:1) 5 d/wk for 2 yr, Dose: 0, 10, 100, 300, 1000, 3000 ug/kg in corn oil:acetone (99:1) 5 d/wk for 2 yr; Tumor Site: Type of Lesion: Liver: Cholangioma 0/53, 0/54, 0/53, 0/53, 2/53, 0/51)) was “equivocal”.
`C=COc1ccc([N+](=O)[O-])cc1` was tested, and the carcinogen call (Species: MOUSE, Strain/Sex: B6C3F1/MALE, Route: INTRAPERITONEAL, Dose: 0, 60, 300 NMOL/G BW IN 10 µL TRIOCTANOIN ONCE (STUDY DURATION: 10 MO), Dose: 0, 60, 300 NMOL/G BW IN 10 µL TRIOCTANOIN ONCE (STUDY DURATION: 10 MO), Tumor Site: Type of Lesion: LIVER: HEPATOMA) was “active; positive”.
With `O=C(O)Nc1ccc(-c2ccccc2)cc1` the carcinogen call (Species: RAT, Strain/Sex: STRAIN-CD/FEMALE, Route: INTRAPERITONEAL, Dose: 0, 100 UMOL/KG BW 2/WK FOR 6 WK (STUDY DURATION: 62 WK)) was “inactive; negative”.
